Data as given in ChEMBL document CHEMBL2390946, “Discovery of TAK-960: an orally available small molecule inhibitor of polo-like kinase 1 (PLK1)” (Bioorg Med Chem Lett, 2013).

Assays:
Assay type in all cases: ADME, organism-based
[1] = Oral bioavailability in rat at 5 mg/kg; conditions: in vivo
[2] = Volume of distribution at steady state in rat at 1 mg/kg, iv and 5 mg/kg, po; conditions: in vivo, read-out: Vdss
[3] = Half life in rat at 1 mg/kg, iv and 5 mg/kg, po; conditions: in vivo
[4] = Clearance in rat at 1 mg/kg, iv and 5 mg/kg, po; conditions: in vivo

| SMILES | bioavailability [1] [%] | Vd [2] [L/kg] | half-life [3] [h] | clearance [4] [mL/min/kg] |
| --- | --- | --- | --- | --- |
| COc1cc(C(=O)NC2CCN(C)CC2)ccc1Nc1ncc2c(n1)N(C1CCCC1)CC(F)(F)C(=O)N2C | 11 | 19.6 | 3.3 | 51 |
| COc1cc(C(=O)NC2CCN(C)CC2)c(F)cc1Nc1ncc2c(n1)N(C1CCCC1)CC(F)(F)C(=O)N2C [TAK-960] | 54 | 13.7 | 5.4 | 42 |
